Assays:
[1] = Kinetics of oxidation of the dihydro derivatives in brain homogenate; assay type: in vitro ADME, rat; details: pH 7.4, 37°C; for half-life: rat
Experimental: In Brain Homogenate: 2.0 g of rat brain tissue were homogenized in 10 ml of phosphate buffer, pH 7.4. The homogenate was centrifuged for 15 min at 3000 rpm, decanted, heated in a water bath at 50°C for 5 min and then centrifuged again. The supernatant solution was diluted to 100 ml with phosphate buffer, pH 7.4.
Reference Sample: 0.2 ml of methyl alcohol was diluted to 10 ml with the brain homogenate solution, and the solution was used to record the base line on Cary 219 spectrophotometer and as a reference for the dihydro derivative sample solution.
Dihydro Derivative Sample Solutions: 0.2 ml of 6.25 x 10-^4 M methanolic solution of the freshly prepared dihydro derivative was diluted to 10 ml with the brain homogenate solution. The mixture was scanned at 37 ° C from 400 nm to 300 nm every 10 min for 2 hrs on […] spectrophotometer.

[2] = Chemical oxidation by hydrogen peroxide and silver nitrate; assay type: physicochemical; details: 30% H2O2, UV spectrum
Experimental: The stability of the 1,4-dihydropyridine derivatives (5) was determined in the presence of the oxidizing agents, alcoholic AgN03 and hydrogen peroxide. The in vitro rates of oxidation of the 1,4-dihydropyridine derivative (5c) in 80% plasma, 20% brain homogenate, 20% liver homogenate and in whole blood were determined.
To 10 ml of 30% H202 was added 0.2 g of the dihydropyridine derivative (products of Examples 5 or 8). The mixture was stirred and samples were taken to check the UV spectrum.
To 5 ml of saturated methanolic AgN03 solution was added 1 ml of 5% methanolic solution of the dihydropyridine derivative. The mixture was shaken and left for 5 min for complete precipitation of silver, centrifuged and an aliquot was taken to check the UV spectrum. Complete oxidation to the quaternary salts was observed.

[3] = Kinetics of oxidation of the dihydro derivatives in whole blood; assay type: in vitro ADME, human; details: 37°C; for half-life: human
Experimental: In Whole Blood: In each of 5 tubes, 0.1 ml of 10 x 10-^4 M methanolic solution of the freshly prepared dihydro derivative, was added 2 ml of fresh heparinized whole human blood and the tubes were kept at 37°C in a water bath. At the end of the time period to be investigated, 8 ml of acetonitrile was added, shaken vigorously and centrifuged. The extension of the supernatant solution at 350 nm was measured. A reference sample was made by addition of 0.1 ml of methyl alcohol instead of the sample solution following the same procedure.

[4] = biological target: T1, COMT (catechol-O-methyltransferase) (Rattus norvegicus, UniProt P22734); test: O-methyl metabolite formation by COMT in biological fluids; assay type: in vitro ADME; details: no methoxy derivatives detected in any of the biological fluids studied
T1 construct: from tissue; host or cells: rat brain homogenate (20%), rat liver homogenate (20%); also 80% plasma and whole citrated blood
T1 sequence (P22734 1-264): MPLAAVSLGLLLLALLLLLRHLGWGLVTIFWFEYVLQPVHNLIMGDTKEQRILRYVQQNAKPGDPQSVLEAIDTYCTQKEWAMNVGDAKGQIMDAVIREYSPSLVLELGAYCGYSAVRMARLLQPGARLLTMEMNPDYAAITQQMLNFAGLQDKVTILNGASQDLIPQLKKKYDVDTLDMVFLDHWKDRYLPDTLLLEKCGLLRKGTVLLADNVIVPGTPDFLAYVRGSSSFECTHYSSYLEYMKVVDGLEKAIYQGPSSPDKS
Experimental: In an attempt to ascertain whether any biotransformation of the free catechol is taking place by COMT (catechol-O-methyltransferase) either before or after oxidation, the possible O-methyl metabolites (9 and 10) were synthesized separately following Scheme 4 with 3-methoxytyramine hydrochloride as the starting material. [drawing 52] [drawing 53]
Figures 1-4 illustrate the results of such an investigation. The apparent half-lives for the disappearance of 5c in biological fluids at 37°C were calculated. […] The obtained values, 51 min (80% plasma), 17 min (20% brain homogenate), 18 min (whole citrated blood) and 6 min (20% liver homogenate), reflect an acceptable stability of the dihydro derivative 5c. The disappearance of 5c is accompanied by formation of some monoester (11) and dihydroxy dihydro form (5a) in all the media except the liver homogenate. The rate of hydrolysis of the first ester moiety is faster than the second and a reasonable amount of monoester 11 builds up with time. […] Thus, it is established that this derivative, 6a, is forming as the main product of the various interconversion routes and it is the direct precursor thus concluded to be locked in the brain in the in vivo experiment.

[5] = Lability of the catechol esters to hydrolysis; assay type: physicochemical; details: diacetyl derivatives
From the text: Attempts to prepare 7 by using dopamine free base were largely unsuccessful. As for the catechol protecting groups, the acetyl and pivalyl moieties were selected due to their rather different steric and partitioning parameters. Acylation could be accomplished with the acyl chlorides by using conventional methods. Reduction of the quaternaries (6a-c and 9) was accomplished by using sodium dithionite in mildly basic aqueous solution, (NaHC03). It was observed that the dihydro compound obtained in the case of the quaternary 6b gave a faint green color with ferric ions, indicating partial hydrolysis of at least one of the acetyl moieties during reduction, even in the cold, weakly basic solution used as a medium. The dihydropyridine derivatives isolated (5a-c and 10) were determined to have the expected 1,4-dihydropyridine structure, based on their NMR and UV spectra.
The dipivalyldihydro derivative (5c) was thoroughly investigated for its in vitro rates of disappearance and metabolic degradation in various biological fluids. It is evident that 5c represents a rather complex case, as besides oxidation, a two-step hydrolysis will also take place. Scheme 5 illustrates the interconversion of the possible components. [drawing 54]

serum prolactin = test: In vivo effect on pituitary prolactin secretion (17-β-estradiol primed male rats); details: I.V. 1 mg/kg
From the text: Adult male rats (Charles Rivers, CD-1) weighing 200 to 225 g were provided food and water ad libitum for at least one week period to experimentation. To elevate serum prolactin levels, each rat received a single s.c. implant of a Silastic tube (1.57 mm interior diameter, 5 mm x 3.15 mm overall size) packed with crystalline 17-,8-estradiol. Two days later the rats were lightly anesthetized with ether and a small incision was made over the right jugular vein for intravenous (LV.) administration of the test drugs. Compound 6a was injected at a dose of 1 mg/kg body weight/ml saline and groups of six rats were decapitated at 15, 30, 60 and 120 min later to collect blood samples. Control rats (time 0) received an I.V. injection of the saline vehicle and were decapitated 30 min later. Compound 5c was dissolved in 10% ethanol in saline and was injected IV. Rats were decapitated at 15, 30 and 120 min later. Control (time 0) animals received the 10% ethanol vehicle and were sampled 30 min later.
Trunk blood was collected, allowed to clot for 2h and the serum was separated and stored at -20 ° C for subsequent assay for prolactin concentrations. Each serum sample was assayed in duplicate by the doubleantibody radioimmunoassay procedure described by the National Pituitary Agency Hormone Distribution Program. Serum prolactin concentrations are expressed in terms of the PRL-RP-2 reference preparation provided. The intraassay coefficient of variation for 10 replicate samples of pooled serum obtained from male rats was 13.8%.
The effects of compounds 5c and 6a on serum prolactin concentrations were evaluated by one-way analysis of variance and Student-Newman Keuls tests. A probability level of less than 0.05 was selected for significance. See FIGURE 7 and the discussion thereof hereinabove.

anterior pituitary (AP) = test: In vitro evaluation of the prolactin inhibitory effect on incubated anterior pituitaries; assay type: cell-based, rats; details: for Prolactin release rate of the incubated AP-S: 37°C, average of 9 separate AP-S
Experimental: Adult female rats (Charles Rivers Lab.) weighing 225-250 g were maintained on food and water ad libitum. Animals were sacrificed by decapitation; their pituitary glands were quickly removed from the cranium. The anterior pituitary (AP) of each animal was dissected into two equal halves and placed into incubation media. (Gibco's Minimal Essential Media supplied by Grand Island Biological Co. was used.) The incubation was conducted at 37 °C, under continuous aeration (95% 02, 5% C02); the pH was 7.2. After one hour of preincubation, the media were discarded and replaced with fresh ones containing either DA ( 2 x 10-^8 M), 6a ( 2 x 10-^8) or ascorbic acid (10-^4 M). In all cases, one-half of AP received the test drug; the other, the ascorbate control. After one hour, samples were taken from the media and the remaining media were discarded. […] One hour later, the second samples were taken After the 3 h incubation period, each half AP's were weighed. The samples were diluted 1:50 with phosphate buffered saline and then assayed in triplicate by the radioimmunoassay method described. The data are given as ng prolactin released/mg wet weight/h. Paired Student's T-test was used to evaluate the significance of the inhibitory effects of the test drugs on prolactin secretion The control AP half and the drug treated half were employed in each paired comparison. See TABLE I and the discussion thereof hereinabove.

[6] = cited from earlier work

For CN1C=C(C(=O)NCCc2ccccc2)CC(C(=O)NCCc2ccccc2)=C1 [1-Methyl-3,5-di(N-β-phenethyl)carbamoyl-1,4-dihydropyridine], which “Kinetics of Oxidation (rate constant)” value [1] is on record?
Its value is 8.4 x 10^-6 n=6 r=.997.

And the half-life ([1]; unit inferred)?
Its half-life is 22.9 h.

And the “Oxidation by Hydrogen Peroxide” value [2]?
Its value is “Complete oxidation to the corresponding quaternary salts”.

What about the “Kinetics of Oxidation (rate constant)” value [3] of the same compound?
The value was 4.9 x 10^-5 n=5 r=.949.

What about the half-life ([3]; unit inferred) of the same compound?
Its half-life is 3.9 h.

For CCOC(=O)C1=CN(C)C=C(C(=O)NCCc2ccccc2)C1 [5-Carboethoxy-1-methyl-3-(N-β-phenethyl)carbamoyl-1,4-dihydropyridine], which “Kinetics of Oxidation (rate constant)” value [1] is on record?
The value was 1.74 x 10^-5 n=6 r=.993.

What about the half-life [1] of the same compound?
The half-life was 11.1 h.

What about the “Oxidation by Hydrogen Peroxide” value [2] of the same compound?
The value was “Complete oxidation to the corresponding quaternary salts”.

And the “Kinetics of Oxidation (rate constant)” value [3]?
Its value is 1.13 x 10^-4 n=5 r=.972.

And the half-life [3]?
Its half-life is 1.7 h.

With CN1C=CCC(C(=O)NCCc2ccc(O)c(O)c2)=C1 [5a, 1-Methyl-3-{N-[β-(3,4-dihydroxyphenyl)-ethyl]}carbamoyl-1,4-dihydropyridine] as the compound, how does the “substrate for COMT” value [4] read?
The value was “do not appear to be good substrates for COMT”.

With CC(=O)Oc1ccc(CCNC(=O)C2=CN(C)C=CC2)cc1OC(C)=O [5b, 1-Methyl-3-(N-[6-(3,4-diacetoxyphenyl)-ethyl]}carbamoyl-1,4-dihydropyridine] as the compound, how does the lability to hydrolysis [5] read?
Its lability to hydrolysis is “labile to hydrolysis”.

Which “serum prolactin levels versus vehicle injected controls” value (serum prolactin; by 60 and 120 min) does the source give for C[n+]1cccc(C(=O)NCCc2ccc(O)c(O)c2)c1 [6a] here?
Its value is “not significantly different from vehicle injected controls”.

And the “effect on the serum prolactin concentrations” value (serum prolactin; by 15 min)?
The value was “no significant effect”.

What about the “reduction of serum prolactin concentrations” value (serum prolactin; by 30 min) of the same compound?
The value was 67%.

And the “reduction of the prolactin rate secretion” value (anterior pituitary (AP); 2x10-^7 M)?
Its value is “no effect”.

What about the “Prolactin release rate of the incubated AP-S” value (“Prolactin release rate” for short) (anterior pituitary (AP); 2x10^-7M) of the same compound?
The value was 277±32 ng/mg. h.

And the “effect on the rate of release of prolactin” value (anterior pituitary (AP); 2x10^-8M)?
Its value is “neither DA nor 6a had any effect”.

And the “Prolactin release rate” value (anterior pituitary (AP); 2x10^-8M)?
Its value is 386±29 ng/mg. h.

And the “substrate for COMT” value [4]?
The value was “do not appear to be good substrates for COMT”.

With CC(=O)Oc1ccc(CCNC(=O)c2ccc[n+](C)c2)cc1OC(C)=O [6b, 1-Methyl-3-{N-[β-(3,4-diacetoxy-phenyl)ethyl]} carbamoyl-pyridinium iodide] as the compound, how does the lability to hydrolysis [5] read?
The lability to hydrolysis was “labile to hydrolysis”.

With NCCc1ccc(O)c(O)c1 [DA, dopamine, reference compound] as the compound, how does the “Prolactin release rate” value (anterior pituitary (AP); 2x10^-7M) read?
The value was 121±38 ng/mg. h.

What about the “effect on the rate of release of prolactin” value (anterior pituitary (AP); 2x10^-8M) of the same compound?
Its value is “neither DA nor 6a had any effect”.

And the “Prolactin release rate” value (anterior pituitary (AP); 2x10^-8M)?
Its value is 355±67 ng/mg. h.

What about the inhibition at 0.2 µM (anterior pituitary (AP); Rattus norvegicus, 1 h, 2x10-^7 M, read-out: reduction of the prolactin rate secretion) of the same compound?
Its inhibition at 0.2 µM is 57%.

Which “level in the blood needed to achieve the required activity” value [6] does the source give for CCCC(CCC)C(=O)[O-].[Na+] [sodium valproate] here?
The value was 50 to 100 µg/mL.
